In patent publication US4186136A, “Novel benzothienyl amino (propyl and butyl) ketones, a method of preparation thereof and their application to therapeutics” (priority 1975, dated 1980):
In brackets after ≈: the same amount, converted by molar mass. Several values for one entry are separate records, joined by “and”; a condition that tells them apart may be missing. Equal values may be shown once. Where a name gives a salt, the structure may show the parent alone. Read-outs that look alike come from different tables or passages of the source.

How the values were obtained:
[1] = tested on: isolated heart of a gumea-pig; assay: Vaso-dilatatory activity, coronary flow of isolated perfused heart; settings: for activation at 10 µg/mL: Locke, 37° C., read-out: Percentage flow increase P (X); for P (X) / P (R): relative to Dipyridamole, both 1×10^-5 g/ml
Procedure: The coronary flow is recorded, by means of an electronic device fitted with a Fleish totaliser, before and after addition of the substance X under study (concentration: 1×10^-5 g/ml), the reference product (R) being 2,6-bis (diethanolamino) 4,8-dipiperidinopyrimido[5,4-d]pyrimidine (known under the trademark "Dipyridamole") used at a concentration of 1×10^-5 g/ml.
The percentage flow increase P was calculated at the climax of the activity of X or R.

[2] = Acute toxicity, oral, mouse (LD 50, Miller and Tainter); format: in vivo; settings: in vivo, death rate checked for seven days, read-out: 50% lethal dose (LD 50) (converted)
Procedure: The acute toxicity of the compounds of formula (I) were evaluated orally (esophagean probe) on a mouse deprived of food 18 hours before the beginning of the test. The products were placed in suspension in a solution of dilute carboxymethyl cellulose. Calculation of the 50 lethal dose (LD 50) was effected according to the method of Miller and Tainter (Miller L. C., Tainter M. L., Proc. Soc. Exptl. Biol. Med. 1944, 57, 261-264).
The death rate was checked for seven days following the treatment.
Table III gives the 50% lethal doses (LD 50) in milligrammes per kilogramme body weight.

[3] = tested on: human blood-plaques (aggregation with collagene); assay: Inhibition of blood-plaque aggregation induced by collagene; format: cell-based; settings: for Inhibitory activity of the blood-plaque aggregation, COLLAGENE, a (X) / inhibition at 20 µg/mL: C (X)=2×10^-5 g/ml; for Ratio of a (X) to a (R), COLLAGENE (head drawn): X 2×10^-5 g/ml, R 2×10^-4 g/ml; for inhibition at 20 µg/mL: Homo sapiens, read-out: Inhibitory activity of the blood-plaque aggregation, COLLAGENE, a (X)
Text: (§1) The blood plaques used for these studies were human blood-plaques introduced into the test in the form of blood-plaque rich plasmas (B.P.R.P.).
(§2) These latter were obtained as water-repellent material by slow centrifugation from human blood samples.
(§3) The study of blood-plaque aggregation was made by means of an aggregate-meter with continuous agitation and graphic recording according to the conventional method. (PROST R. S., SOUVERAIN C. H., DOUMENC J., Etude de l'agregation plaquettaire a l'aide de l'agregametre de MUSTARD-Coagulation, 1971, 4, 2, 145-151).
(§4) The agents employed for inducing aggregation were diphosphoric adenosine acid (D.P.A.), 1-(3',4'-di-hydroxyphenyl)-2-methylamino ethanol (adrenaline) and collagene. All these reactants were prepared from mother solutions diluted in a Michaelis' buffer. Their concentration in the test may vary according to the affinity of the blood-plaques.
(§5) An optimum concentration is thus sought by successive tests on the same B.P.R.P.
(§6) The inhibitory activity on the aggregation was evaluated by addition of the product under study to the B.P.R.P. before introduction of the aggregating agent.
(§7) The concentrations of compounds of formula I (X) in the B.P.R.P. are: C (X)=2.5×10^-5 g/ml for aggregation with D.P.A. and adrenaline, and C (X)=2×10^-5 g/ml for collagene.
(§8) The reference product (R) is 2,6-bis (diethanolamino)-4,8-dipiperidinopyrimido[5,4-d]pyramidine (known under the trademark "Dipyridamole") used in the concentration C (R)=5×10^-4 g/ml for aggregation with D.P.A. and adrenaline and C (R)=2×10^-4 g/ml for aggregation with collagene.
(§9) The following table IV indicates the activity of some compounds of formula I: a (X) the activity of the reference product: a (R) and the different values of the ratio: [formula]

[4] = tested on: human blood-plaques (aggregation with adrenaline); assay: Inhibition of blood-plaque aggregation induced by adrenaline; format: cell-based; settings: for inhibition at 25 µg/mL: Homo sapiens, C (X)=2.5×10^-5 g/ml, read-out: Inhibitory activity of the blood-plaque aggregation, ADRENALINE, a (X); for Ratio of a (X) to a (R), ADRENALINE (head drawn): X 2.5×10^-5 g/ml, R 5×10^-4 g/ml
Text: as §1, §2, §3, §4, §5, §6, §7, §8, §9

[5] = tested on: human blood-plaques (aggregation with D.P.A.); assay: Inhibition of blood-plaque aggregation induced by D.P.A.; format: cell-based; settings: for Ratio of a (X) to a (R), D.P.A. (head drawn): X 2.5×10^-5 g/ml, R 5×10^-4 g/ml; for inhibition at 25 µg/mL: Homo sapiens, read-out: Inhibitory activity of the blood-plaque aggregation, D.P.A., a (X)
Text: as §1, §2, §3, §4, §5, §6, §7, §8, §9

rat's isolated duodenum = assay: Spasmolytic activity on isolated duodenum contracted by barium chloride (Magnus); settings: for IC50: Rattus norvegicus, barium chloride contraction, Tyrode, 38° C., read-out: Spasmolytic activity ED 50 (X); for ED 50 (R) / ED 50 (X): relative to papaverine hydrochloride
Procedure: The spasmolytic activity was studied on a rat's isolated duodenum maintained in a survival medium of an aerated Tyrode solution heated to 38° C. according to the technique of Magnus (Magnus R.-Archivs ges. Physiol., 1905, 180, 1-71).
The contracting agent used was barium chloride, the reference antogonist agent being papaverine hydrochloride (R). The average activity of the compounds of formula I (X) in comparison with that of the reference agent was expressed by calculating the ratio of the 50 efficient doses (ED 50) determined graphically on logarithmic paper: [formula]
For example: a substance having a relative activity expressed by the FIG. 2 presents an activity equal to twice that of papaverine hydrochloride.

[6] = tested on: phenylparaquinone (P.P.Q.) painful syndrome in a mouse; assay: Analgesic and anti-inflammatory activity, phenylparaquinone (P.P.Q.) painful syndrome; format: in vivo; settings: for Analgesic and anti-inflammatory activity, percentage activity a(X): 50 mg/kg digestively; for a(X) / a(R), analgesic and anti-inflammatory activity: X 50 mg/kg, R (Galfenine) 25 mg/kg
Procedure: The intraperitoneal injection of phenylparaquinone (P.P.Q.) in a mouse causes the appearance of a painful syndrome appearing within 5 minutes of the injection and disappearing after about 30 minutes (SIEGMUND E. A., CADMUS A., LU G., J. Pharmacol. Exp. Therap. 1957, 119, 453). This painful syndrome manifests itself in the animal by a series of characteristic crises, more or less close together and fleeting, during which we can note a twisting or stretching of the body, a hollowing of the sides and a stretching of the hind legs.
It is therefore possible to note the number of crises in a given interval of time.
The preventive administration of analgesic or anti-inflammatory substances prevents the appearance of crises or reduces the frequency thereof.
The reference substance (R) used in the tests was the ester of N-(7-chloro-4 quinolyl) anthranilic acid and 2,3-dihydroxy n.propanol (known under the trademark Galfenine).
It was administered orally with a dose of 25 mg/kg.
The compounds of formula I (X) were administered digestively with a dose of 50 mg/kg.
The interval of time (t) which was chosen to evaluate the analgesic activity was between 10 and 15 minutes which is the period of maximum frequency of the crises. This activity was expressed in the following way:
n: number of crises observed in the control mice;
n': number of crises observed in mice previously treated with the reference substance (R);
n": number of crises observed in mice having received the substance (X).
The percentage activity of R is equal to [formula]
The percentage activity of X is equal to [formula]
The activity of X in relation to that of R is estimated by the ratio [formula]
For example: a compound X for which [formula] is 0.5 has an activity equal to half that of the reference product.

[7] = 1×10^-5 g/ml, coronary flow at climax of activity
[8] = crises between 10 and 15 minutes
[9] = reference product, C (R)=5×10^-4 g/ml

SMILES | LD50 at 168 h ([2]; po) | Ratio of a (X) to a (R), COLLAGENE (head drawn) [3] | inhibition at 25 µg/mL [4] | Ratio of a (X) to a (R), ADRENALINE (head drawn) [4] | Ratio of a (X) to a (R), D.P.A. (head drawn) [5] | inhibition at 25 µg/mL ([5]; C (X)=2.5×10^-5 g/ml) | inhibition at 20 µg/mL [3] | ED 50 (R) / ED 50 (X) (rat's isolated duodenum) | Analgesic and anti-inflammatory activity, percentage activity a(X) [6, 8] | a(X) / a(R), analgesic and anti-inflammatory activity [6] | further results
O=C(CCCN1CCOCC1)c1cc2ccccc2s1 [Compound 1, 1-(benzothien-2'-yl)-4-N-morpholino butanone] | 1200 mg/kg | 3.3×10^-1 | 9% | 1×10^-1 | – | – | – | – | – | – | activation at 10 µg/mL [1, 7]: 28%; P (X) / P (R) [1]: 6.5 × 10^-1; Inhibitory activity of the blood-plaque aggregation, COLLAGENE, a (X) [3]: 12%
C=CCN(CC=C)CCCC(=O)c1cc2ccccc2s1 [Compound 3, 1-(benzothien-2'-yl)-4-N,N-diallylamino butanone oxalate] | – | 1.95×10^-1 | – | – | 1.7×10^-1 | 15% | 13% | 2.08 | – | – | IC50 (rat's isolated duodenum): 1.2 µg/mL
CN(C)CCCC(=O)c1cc2ccccc2s1 [Compound 4] | 950 mg/kg | 4.5×10^-1 | 78% | 1 | – | – | 39% | – | – | – | –
O=C(CCCN1CCCCC1)c1cc2ccccc2s1 [Compound 5] | 1300 mg/kg | 1.4×10^-1 | 84% | 1.1 | 1.5×10^-1 | 8% | 12% | – | – | – | –
O=C(CCCN1CCOCC1)c1cc2ccccc2s1 [Compound 6] | – | 3.5×10^-1 | – | – | 1.7×10^-1 | 15% | – | – | 55% | 7 × 10^-1 | Inhibitory activity of the blood-plaque aggregation, COLLAGENE, a (X) [3]: 32%
CCN(CC)CCCC(=O)c1csc2ccccc12 [Compound 9] | > 1200 mg/kg | 3×10^-1 | 86% | 1 | 1.9×10^-1 | 15% | 16% | 8.10 | 47% | 1 | –
O=C(CCCN1CCCC1)c1csc2ccccc12 [Compound 13] | 760 mg/kg | – | 84% | 1.1 | 2.3×10^-1 | 18% | – | 1.55 | – | – | IC50 (rat's isolated duodenum): 2.25 µg/mL (≈ 8.23 µM)
O=C(CCCN1CCCCC1)c1csc2ccccc12 [Compound 14] | 850 mg/kg | – | 42% | 5.5×10^-1 | – | – | – | – | 39% | 5.3 × 10^-1 | –
O=C(CCCN1CCCCCC1)c1csc2ccccc12 [Compound 15] | 950 mg/kg | – | 82% | 9.5×10^-1 | – | – | – | 1.6 | 51% | 1.13 | activation at 10 µg/mL [1, 7]: 172%; P (X) / P (R) [1]: 2.42; Inhibitory activity of the blood-plaque aggregation, D.P.A., a (X) ([5]; C (X)=2.5×10^-5 g/ml): 17%; IC50 (rat's isolated duodenum): 3 µg/mL (≈ 9.95 µM)
OCCN(CCO)c1nc(N2CCCCC2)c2nc(N(CCO)CCO)nc(N3CCCCC3)c2n1 [Dipyridamole, 2,6-bis (diethanolamino)-4,8-dipiperidinopyrimido[5,4-d]pyramidine, reference compound] | – | – | – | – | – | – | – | – | – | – | Percentage flow increase P (R) ([1]; reference product, 1×10^-5 g/ml, coronary flow at climax of activity): 43% and 53% and 71%; LD50 at 168 h [2]: 2150 mg/kg; Inhibitory activity of the blood-plaque aggregation, D.P.A., a (R) [5, 9]: 87% and 53% and 79% and 55% and 85%; Inhibitory activity of the blood-plaque aggregation, COLLAGENE, a (R) ([3]; reference product, C (R)=2×10^-4 g/ml): 36%; Inhibitory activity of the blood-plaque aggregation, ADRENALINE, a (R) [4, 9]: 91% and 78% and 86% and 88% and 77%
O=C(OCC(O)CO)c1ccccc1Nc1ccnc2cc(Cl)ccc12 (stereo not drawn) [Galfenine, ester of N-(7-chloro-4 quinolyl) anthranilic acid and 2,3-dihydroxy n.propanol, reference compound] | – | – | – | – | – | – | – | – | – | – | Analgesic and anti-inflammatory activity, percentage activity a(R) ([6]; reference substance, 25 mg/kg orally, crises between 10 and 15 minutes, 25 mg/kg): 75% and 77% and 45% and 74%
